Values quoted from earlier work as cited in US20110160463A1, “PROCESS FOR MAKING SUBSTITUTED 2-AMINO-THIAZOLONES” (Amgen Inc., priority 2008, published 2011).

Legend:
11βHSD1 [1] = target: T1, 11βHSD1 (Homo sapiens, UniProt P28845); settings: ingestion, normal subjects
T1 construct: reduce the intraocular pressure by 20% in normal subjects; host or cells: endogenous enzyme in living subjects (eye)
T1 sequence (P28845 whole entry): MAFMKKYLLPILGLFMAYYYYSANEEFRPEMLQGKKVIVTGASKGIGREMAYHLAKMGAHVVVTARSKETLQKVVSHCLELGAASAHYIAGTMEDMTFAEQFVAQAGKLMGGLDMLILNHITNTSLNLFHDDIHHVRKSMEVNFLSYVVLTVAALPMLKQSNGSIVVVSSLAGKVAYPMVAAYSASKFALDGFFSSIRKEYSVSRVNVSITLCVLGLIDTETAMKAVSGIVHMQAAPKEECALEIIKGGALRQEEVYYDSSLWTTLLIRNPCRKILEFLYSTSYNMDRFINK

11βHSD1 [2] = target: T2, 11βHSD1 (Homo sapiens, UniProt P28845); settings: healthy human volunteers
T2 construct: Hepatic insulin sensitivity was improved in healthy human volunteers; host or cells: endogenous enzyme in human volunteers (liver)
T2 sequence (P28845 whole entry): as above

CC1(C)[C@@H](OC(=O)CCC(=O)O)CC[C@]2(C)[C@H]3C(=O)C=C4[C@@H]5C[C@@](C)(C(=O)O)CC[C@]5(C)CC[C@@]4(C)[C@]3(C)CC[C@@H]12 [carbenoxolone]
reduction of the intraocular pressure (11βHSD1 [1]): 20% | hepatic insulin sensitivity (11βHSD1 [2]): improved | negative effect (of glucocorticoids) on bone nodule formation (bone nodule formation): blocked
